The values below are quoted from earlier work in US9884121B2, “Biomaterials and a method for making and using same” (Alumend, LLC, priority 2007, dated 2018).

SMILES strings stand for the structures.

This data set has as its system Skin-to-skin. As to conditions: U.S. Pat. No. 5,817,303.

For the molecule `C=C(C#N)C(=O)OCC` [Ethyl cyanoacrylate], the “Shear Strength” value is 385 ± 119 g-f/cm^2.
